# Laboratory results taken from patent US12419886B2, “Parenteral formulations and uses thereof” (Eustralis Pharmaceuticals Limited, priority 2018, dated 2025).
# What was measured:
# [1] = Solubility of Compound (Ia) 2HCl in water (ethanol also assessed); assay type: physicochemical
# Experimental: Ethanol was also assessed as part of this study.
# [2] = Excipient compatibility, 14 days stability (HPLC assay and related substances); assay type: physicochemical; settings: 25° C./60% RH and 40° C./75% RH
# Experimental: The successful formulation characteristics of a solution are its solubility and stability. The solvent system chosen must also be able to solubilise the drug at the desired concentration and must provide an environment where the drug has sufficient chemical stability. This study is an initial comparison of 2 weeks stability with potential excipients, and the % degradation was assessed. The excipients assessed are those typically found in liquid and freeze dried formulations. Excipient compatibility was investigated by subjecting a series of mixes containing active and excipient to elevated temperature for a nominated period and monitoring any degradation.
# The solutions that were soluble in Table 3 were also prepared using Kolliphor 400 mg/mL in water and with Tween 80 as a solubiliser. These solutions were placed on stability at 25° C./60% RH and 40° C./75% RH for 14 days. The formulations was assessed for assay and related substances after 14 days of storage. Refer to Table 4 and 5 for the results.
compound,measurement,setting,value
Cc1ccccc1-c1cc(N2CCN(C)CC2)ncc1C(=O)N(C)Cc1cc(C(F)(F)F)cc(C(F)(F)F)c1 [Compound (Ia) 2HCl],pH of solution in water,[1]; 5 mg/mL,2.39
same,Result (solubility in water),[1]; 5 mg/mL (50 mg in 10 mL water),Very soluble
same,pH of solution in water,[1]; 10 mg/mL,2.14
same,Result (solubility in water),[1]; 10 mg/mL (100 mg in 10 mL water),Very soluble
same,pH of solution in water,[1]; 15 mg/mL,2.02
same,Result (solubility in water),[1]; 15 mg/mL (150 mg in 10 mL water),Soluble
same,pH of solution in water,[1]; 20 mg/mL,1.87
same,Result (solubility in water),[1]; 20 mg/mL (200 mg in 10 mL water),Soluble
same,pH of solution in water,[1]; 25 mg/mL,1.81
same,Result (solubility in water),[1]; 25 mg/mL (250 mg in 10 mL water),Soluble
same,pH of solution in water,[1]; 30 mg/mL,1.75
same,Result (solubility in water),[1]; 30 mg/mL (300 mg in 10 mL water),Soluble
same,pH of solution in water,[1]; 35 mg/mL,1.72
same,Result (solubility in water),[1]; 35 mg/mL (350 mg in 10 mL water),Soluble
same,pH of solution in water,[1]; 40 mg/mL,1.66
same,Result (solubility in water),[1]; 40 mg/mL (400 mg in 10 mL water),Soluble
same,pH of solution in water,[1]; 45 mg/mL,1.54
same,Result (solubility in water),[1]; 45 mg/mL (450 mg in 10 mL water),Soluble
same,pH of solution in water,[1]; 50 mg/mL,1.52
same,Result (solubility in water),[1]; 50 mg/mL (500 mg in 10 mL water),Soluble
same,Solubility,"[1]; 50 mg/mL, sentence follows mention of ethanol",freely soluble
same,Stability in a range of formulations (conclusion),[2],quite stable
